One data set relates to proteasome. Briefly: Proteasome inhibition of endogenous antigen processing in vHCV 827-infected B-LCLs, IFN-γ read-out of CTL lines. The class given is cell-based, human.
The subject of data set [1] is immunoproteasome (20S). Briefly: purified immunoproteasome in digestion buffer (20 mM HEPES-NaOH pH 7.6, 2 mM MgAc2, 0.5 mM DTT). Particulars: human, up to 6 hours.
Data set [2] deals with constitutive proteasome (20S). Briefly: purified constitutive proteasome in digestion buffer (20 mM HEPES-NaOH pH 7.6, 2 mM MgAc2, 0.5 mM DTT). The settings on record: human, up to 6 hours.
Data set [3] has as its system immunoproteasome (20S). Briefly: purified immunoproteasome, 4 µg in the degradation experiment, in digestion buffer. Particulars: human, up to 6 hours.
The subject of data set [4] is constitutive proteasome (20S). Briefly: purified constitutive proteasome, 4 µg in the degradation experiment, in digestion buffer. Particulars: human, up to 6 hours.
Another data set has as its target T1, immunoproteasome (Homo sapiens, UniProt P28062+P28065+P40306).
T1 construct: Constitutive and immuno-20S proteasomes were purified from LCL721.174 and LCL721 human EBV-transformed B cell lines; endogenous in cells; host or cells: LCL721 human EBV-transformed B cell line
Put plainly: In vitro proteasomal peptide digest with mass spectrometry. Format: in vitro ADME. The settings on record: 25-mer precursor, 1, 2, 4 and 6 hours; 2 µg or 4 µg proteasome; extracted ion chromatograms; Fig 6; triplicate.

The record followed here is paper PMC3510254 (PLoS Pathogens, 2012).

Where no end group is shown, it is not given here.

Regarding `CC(=O)N[C@@H](CSC(=O)[C@]1([C@@H](O)C(C)C)NC(=O)[C@H](C)[C@@H]1O)C(=O)O` [lactacystin], the “reductions in the number of responding CD8+ T cells” value with proteasome is 30–70%.
For AQTFLATCINGVCWTVYHGAGTRT, the fragment found result (with immunoproteasome (20S) [1]; in data set [2]) was “CINGVCWTV” throughout.
On to `CC[C@H](C)[C@H](NC(=O)[C@H]([C@@H](C)CC)N(C)C(C)=O)C(=O)N[C@H](C(=O)N[C@@H](CC(C)C)C(=O)[C@@]1(C)CO1)[C@@H](C)O` [epoxomicin], for which the “effect on induction of epitope-specific IFN-γ production and number of responding CD8+ T cells” value in the data set on proteasome is “delay the induction of epitope-specific IFN-γ production and considerably decrease the number of responding CD8+ T cells”.
Consider VRVCEKMARMILMTHFPLAVMGSSY, for which the fragment found result (in the data set with immunoproteasome (20S) [3]; in data set [4]) was “ARMILMTHF” throughout.
In the case of VRVCEKMARMILMTHFPLAVMGSSY [B27-in-A2], the “precursor degradation rate relative to A2-in-A2 peptide, immunoproteasomal digestion” value on immunoproteasome is “degraded slightly more slowly than the A2-in-A2 peptide”.
